Experimental data as given in patent US7001905B2, “Substituted diarylamines as MEK inhibitors” (Warner-Lambert Company, priority 2000, dated 2006).

Molecular target: T1, MEK (Homo sapiens, UniProt Q02750)
T1 construct: no tag is given for the 2D mutant
Assay: in vitro MEK assay
Format: biochemical
Description: For evaluation of direct MEK activity, 10 μg GST-MEK, is incubated in the presence of absence of test compound with 5 μg of a glutathione S-transferase fusion protein containing p44MAP kinase with a lysine to alanine mutation at position 71 (GST-MAPK-KA). This mutation eliminates kinase activity of MAPK, so only kinase activity attributed to the added MEK remains. Incubations are 15 minutes at 30° C. in a final volume of 50 μL containing 50 mM Tris (pH 7.5), […], 2, μM EGTA, and 10 μM [γ-^32P]ATP. The reaction is stopped by addition of Laemmli SDS sample buffer. Phosphorylated GST-MAPK-KA is resolved by electrophoresis on a 10% polyacrylamide gel. Radioactivity incorporated into GST-MAPK-KA is determined by autoradiography, and subsequent scintillation counting of excised bands.
Alternatively, an artificially activated MEK containing serine to glutamate mutations at positions 218 and 222 (GST-MEK-2E) is used. When these two sites are phosphorylated, MEK activity is increased. Phosphorylation of these sites can be mimicked by mutation of the serine residues to glutamate. For this assay, 5 μg GST-MEK-2E is incubated with 5 μg GST-MAPK-KA for 15 minutes at 30° C. in the same reaction buffer as described above. Reactions are terminated and analyzed as above.

T1 sequence (Q02750 whole entry S218D/S222D, form open): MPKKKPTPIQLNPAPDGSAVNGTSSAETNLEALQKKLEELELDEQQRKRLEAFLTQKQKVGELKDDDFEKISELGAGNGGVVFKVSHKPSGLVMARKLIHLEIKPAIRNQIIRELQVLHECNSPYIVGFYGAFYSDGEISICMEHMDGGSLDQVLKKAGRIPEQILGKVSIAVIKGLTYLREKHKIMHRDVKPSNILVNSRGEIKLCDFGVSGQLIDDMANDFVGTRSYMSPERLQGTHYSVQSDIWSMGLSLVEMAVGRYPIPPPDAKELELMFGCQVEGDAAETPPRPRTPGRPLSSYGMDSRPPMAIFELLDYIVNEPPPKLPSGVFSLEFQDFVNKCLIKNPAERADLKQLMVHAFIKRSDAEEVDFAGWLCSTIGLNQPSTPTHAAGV

Structure (SMILES)	in vitro MEK assay: % inhibition @ 1 μM [%]	IC50 [nM]
Cc1cc(I)ccc1Nc1c(C(=O)O)cc(C(=O)Nc2cccnc2)c(F)c1F [Example 74, 4,5-Difluoro-6-(4-iodo-2-methyl-phenylamino)-N-pyridin-3-yl-isophthalamic acid]	50	–
Cc1cc(I)ccc1N1COC(=O)c2cc(C(=O)NCCC3CCCN3C)c(F)c(F)c21 (centres unmarked) [Example 19, 7,8-Difluoro-1-(4-iodo-2-methyl-phenyl)-4-oxo-1,4-dihydro-2H-3,1-benzoxazine-6-carboxylic acid [2-(1-methyl-pyrrolidin-2-yl)ethyl]-amide]	28	–
Cc1cc(I)ccc1Nc1c(C(=O)O)cc(C(=O)N2CCC(N3CCCC3)CC2)c(F)c1F [Example 78, 3,4-Difluoro-2-(4-iodo-2-methyl-phenylamino)-5-[1-(4-pyrrolidin-1-yl-piperidin-1-yl)-methanoyl]-benzoic acid]	33	–
Cc1cc(I)ccc1N1COC(=O)c2cc(C(=O)NCCCN3CCCC3=O)c(F)c(F)c21 [Example 12, 7,8-Difluoro-1-(4-iodo-2-methyl-phenyl)-4-oxo-1,4-dihydro-2H-3,1-benzoxazine-6-carboxylic acid [3-(2-oxo-pyrrolidin-1-y)-propyl]-amide]	21	–
CCOC(=O)c1c[nH]nc1NC(=O)c1cc(C(=O)O)c(Nc2ccc(I)cc2C)c(F)c1F [Example 73, 3-({1-[5-Carboxy-2,3-difluoro-4-(4-iodo-2-methyl-phenylamino)-phenyl]-methanoyl}-amino)-1H-pyrazole-4-carboxylic acid ethyl ester]	86	1100
Cc1cc(I)ccc1N1COC(=O)c2cc(C(=O)N(C)C3CCN(C)CC3)c(F)c(F)c21 [Example 16]	0	–
Cc1cc(I)ccc1N1COC(=O)c2cc(C(=O)Nc3nncs3)c(F)c(F)c21 [Example 21, 7,8-Difluoro-1-(4-iodo-2-methyl-phenyl)-oxo-1,4-dihydro-2H-3,1-benzoxazine-6-carboxylic acid 1,3,4-thiadiazol-2-ylamide]	31	–
Cc1cc(I)ccc1N1COC(=O)c2cc(C(=O)N3CCN(C=O)CC3)c(F)c(F)c21 [Example 15, 4-[7,8-Difluoro-1-(4-iodo-2-methyl-phenyl)-4-oxo-1,4-dihydro-2H-3,1-benzoxazine-6-carbonyl]-piperazine-1-carbaldehyde]	13	–
Cc1cc(I)ccc1N1COC(=O)c2cc(C(=O)N3CCCCC3CCO)c(F)c(F)c21 (centres unmarked) [Example 32, 7,8-Difluoro-6-[2-(2-hydroxy-ethyl)-piperidine-1-carbonyl]-1-(4-iodo-2-methyl-phenyl)-1,2-dihydro-3,1-benzoxazin-4-one]	76	–
Cc1cc(I)ccc1N1COC(=O)c2cc(C(=O)N(C)C)c(F)c(F)c21 [Example 5, 7,8-Difluoro-1-(4-iodo-2-methyl-phenyl)-4-oxo-1,4-dihydro-2H-benzo[d][1,3]oxazine-6-carboxylic acid dimethylamide]	–	5800
Cc1cc(I)ccc1N1COC(=O)c2cc(C(=O)NCC3CCCO3)c(F)c(F)c21 (centres unmarked) [Example 57, 7,8-Difluoro-1-(4-iodo-2-methyl-phenyl)4-oxo-1,4-dihydro-2H-3,1-benzoxazine-6-carboxylic acid (tetrahydro-furan-2-ylmethyl)-amide]	35	–
Cc1csc(NC(=O)c2cc3c(c(F)c2F)N(c2ccc(I)cc2C)COC3=O)n1 [Example 24, ,8-Difluoro-1-(4-iodo-2-methyl-phenyl)-4-oxo-1,4dihydro-2H-3,1-benzoxazine-6-carboxylic acid (4-methyl-thiazol-2-yl)-amide]	20	–
CCSc1nnc(NC(=O)c2cc3c(c(F)c2F)N(c2ccc(I)cc2C)COC3=O)s1 [Example 25, 7,8-Difluoro-1-(4-iodo-2-methyl-phenyl)-4-oxo-1,4-dihydro-2H-3,1-benzoxazine-6-carboxylic acid (5-ethylsulfanyl-1,3,4-thiadiazol-2-yl)-amide]	5	–
Cc1cc(I)ccc1N1COC(=O)c2cc(C(=O)N3CCCCC3CO)c(F)c(F)c21 (centres unmarked) [Example 33, 7,8-Difluoro-6-(2-hydroxymethyl-piperidine-1-carbonyl)-1-(4-iodo-2-methyl-phenyl)-1,2-dihydro-3,1-benzoxazin-4-one]	79	–
Cc1cc(I)ccc1Nc1c(C(=O)O)cc(C(=O)N2CC[C@@H](O)C2)c(F)c1F [Example 61, 3,4-Difluoro-5-[1-((R)-3-hydroxy-pyrrolidin-1-yl)-methanoyl]-2-(4-iodo-2-methyl-phenylamino)-benzoic acid]	75	–
Cc1cc(I)ccc1Nc1c(C(=O)O)cc(C(=O)NCCN2CCOCC2)c(F)c1F [Example 79, 4,5-Difluoro-6-(4-iodo-2-methyl-phenylamino)-N-(2-morpholin-4-yl-ethyl)-isophthalamic acid]	54	1500
Cc1cc(I)ccc1Nc1c(C(=O)O)cc(C(=O)N2CCCCC2CCO)c(F)c1F (centres unmarked) [Example 69, 3,4-Difluoro-5-{1-[2-(2-hydroxy-ethyl)-piperidin-1-yl]-methanoyl}-2-(4-iodo-2-methyl-phenylamino)-benzoic acid]	78	2200
COc1ccc(NC(=O)c2cc3c(c(F)c2F)N(c2ccc(I)cc2C)COC3=O)cn1 [Example 46, 7,8-Difluoro-1-(4-iodo-2-methyl-phenyl)-4-oxo-1,4-dihydro-2H-3,1-benzoxazine-6-carboxylic acid (6-methoxy-pyridin-3-yl)amide]	43	–
Cc1cc(I)ccc1N1COC(=O)c2cc(C(=O)NCCOCCO)c(F)c(F)c21 [Example 18, 7,8-Difluoro-1-(4-iodo-2-methyl-phenyl)-4-1,4-dihydro-2H-3,1-benzoxazine-6-carboxylic acid [2-(2-hydroxy-ethoxy)-ethyl]-amide]	43	–
Cc1cc(I)ccc1Nc1c(C(=O)O)cc(C(=O)NCCc2c[nH]cn2)c(F)c1F [Example 88, 4,5-Difluoro-N-[2-(1H-imidazol-4-yl)-ethyl]-6-(4-iodo-2-methyl-phenylamino)-isophthalamic acid]	60	1400
COCC(C)NC(=O)c1cc2c(c(F)c1F)N(c1ccc(I)cc1C)COC2=O (centres unmarked) [Example 22, 7,8-Difluoro-1-(4-iodo-2-methyl-phenyl)-4-oxo-1,4-dihydro-2H-3,1-benzoxazine-6-carboxylic acid (2-methoxy-1-methyl-ethyl)-amide]	46	–
Cc1cc(I)ccc1N1COC(=O)c2cc(C(=O)Nc3nnc(S)s3)c(F)c(F)c21 [Example 27, 7,8-Difluoro-1-(4-iodo-2-methyl-phenyl)-4-oxo-1,4-dihydro-2H-3,1-benzoxazine-6-carboxylic acid (5-mercapto-1,3,4-thiadiazol-2-yl)-amide]	27	–
Cc1cc(I)ccc1N1COC(=O)c2cc(C(=O)N3CCC(CCO)CC3)c(F)c(F)c21 [Example 44, 7,8-Difluoro-6-[4-(2-hydroxy-ethyl)-piperidine-1-carbonyl]-1-(4-iodo-2-methyl-phenyl)-1,2-dihydro-3,1-benzoxazin-4-one]	69	–
Cc1cc(I)ccc1Nc1c(C(=O)O)cc(C(=O)N2CCCC(O)C2)c(F)c1F (centres unmarked) [Example 75]	92	465
Cc1cc(I)ccc1Nc1c(C(=O)O)cc(C(=O)NCCCn2ccnc2)c(F)c1F [Example 90, 4,5-Difluoro-N-(3-imidazol-1-yl-propyl)-6-(4-iodo-2-methyl-phenylamino)-isophthalamic acid]	59	–
Cc1cc(I)ccc1Nc1c(C(=O)O)cc(C(=O)NC(C)CO)c(F)c1F (centres unmarked) [Example 87, 4,5-Difluoro-N-(2-hydroxy-1-methyl-ethyl)-6-(4-iodo-2-methyl-phenylamino)-isophthalamic acid]	66	2200
Cc1cc(I)ccc1Nc1c(C(=O)O)cc(C(=O)NCc2cccnc2)c(F)c1F [Example 71, 4,5-Difluoro-6-(4-iodo-2-methyl-phenylamino)-N-pyridin-3-ylmethyl-isophthalamic acid]	86	1450
CCN1CCN(C(=O)c2cc(C(=O)O)c(Nc3ccc(I)cc3C)c(F)c2F)CC1 [Example 93, 5-[1-(4-Ethyl-piperazin-1-yl)-methanoyl]-3,4-difluoro-2-(4-iodo-2-methyl-phenylamino)-benzoic acid]	70	–
Cc1cc(I)ccc1Nc1c(C(=O)O)cc(C(=O)N2CCCC(CO)C2)c(F)c1F (centres unmarked) [Example 76, 3,4-Difluoro-5-[1-(3-hydroxymethyl-piperidin-1-yl)-methanoyl]-2-(4-iodo-2-methyl-phenylamino)-benzoic acid]	88	300
Cc1cc(I)ccc1N1COC(=O)c2cc(C(=O)N3CCSCC3)c(F)c(F)c21 [Example 59, 7,8-Difluoro-1-(4-iodo-2-methyl-phenyl)-6-(thiomorpholine-4-carbonyl)-1,2-dihydro-3,1-benzoxzin-4-one]	75	–
